Entries after “also recorded” stand apart in the source; their conditions may differ.
Tests used:
Type in all cases: in vivo, mouse (C57BL/6J male, 60% HFD DIO)
[1] = Example 1: body weight and body weight change rate, combined administration of HTD1801 and empagliflozin in DIO obesity model; settings: semaglutide 10 nmol/kg s.c. Q3D
From the text: (§1) After 5-week-old C57BL/6J male mice were acclimatized for 1 week, the weight of each mouse was weighed, and the mice were randomly divided into a control group and a model group by taking the weight as a main index, where 12 mice in the control group were fed with common feed (CD), and the mice in the remaining model group were fed with 60% high-fat feed (60% HFD) for 10-12 weeks to construct a DIO obesity model, with the average body weight being not less than 40 g. The mice fed with 60% HFD were grabbed and acclimatized with a solvent for 3 days, where the acclimatization with a solvent was performed by oral gavage of 0.5% CMC-Na, twice daily.
(§2) The food intake, the body weight, the body fat ratio, and the insulin level of the mice were respectively measured, followed by fasting blood glucose level, and the mice were randomly grouped according to Table 3 by taking the body weight as an index, and the remaining ungrouped mice were euthanized. After grouping, each group of mice was administered according to Table 3, the day of administration was defined as DO, and the administration volume of each drug was determined based on the results obtained by the calculation of 5 μL/g× mouse body weight (g).
(§3) For the combined administration group, the total administration volume was the sum of the administration volumes of two single drugs, and the administration sequence and the administration time were kept consistent at each administration. The mice were continuously fed with high-fat feed during the administration period until the administration was finished. During administration, 2 food intakes were measured per week (difference in feed weights at an interval of 24 h was measured); each group of mice was weighed once daily; postprandial blood glucose levels were measured weekly; blood was collected from the tail tip on day 6 and day 20, respectively, so as to measure fasting blood glucose levels once (blood was collected after fasting from 8:00 am to […]); on day 25 of administration, the body fat ratio and the lean mass of each group of mice were measured by MRI (the measurement period was kept consistent with that before grouping); after 4 weeks of administration intervention (day 28), each group of mice was fasted for 6 h and subjected to OGTT (0 min, 15 min, 30 min, 60 min, 90 min, 120 min) to detect their blood glucose levels, and meanwhile subjected to blood sampling via submaxillary vein (0 min, 15 min, 30 min, about 30 μL of blood sampled each time), and then the blood plasma was separated for detecting the insulin level by ELISA, where the separated blood plasma was more than 10 μL; the next day (D29) at the end of administration was set as the test endpoint, and the mice were fasted for 6 h in the morning and subjected to fasting blood glucose level measurement; subsequently, the mice were euthanized with CO2, blood was collected from the heart of each mouse for analysis, and each group of mice was dissected; the liver and subcutaneous, epididymal and mesenteric fat was collected, photographed and weighed, respectively.

[2] = Example 1: body fat mass by MRI after 25 days
From the text: as §1, §2, §3
After 25 days of administration, the body weight, the body fat mass and the body fat ratio of each animal in groups G1 to G6 were measured and averaged for each group, and the results are shown in Table 5 below, FIG. 4 and FIG. 5.

[3] = Example 1: liver, abdominal and subcutaneous fat weight after 28 days; settings: mean, HTD1801 200 mpk, empagliflozin 10 mpk in last 2 weeks (300/15 mpk before)
From the text: as §1, §2, §3
After 28 days of administration, the mice were euthanized with CO2 the next day, and the mice of groups G1 to G5 were dissected, and liver and abdominal fat (including epididymis and mesentery), and subcutaneous fat were collected, photographed and weighed, respectively, and the results are shown in Table 6 below, FIG. 6, FIG. 7, and FIG. 8.

[4] = Example 1: fasting blood glucose level; settings: semaglutide 10 nmol/kg s.c. Q3D
From the text: as §1, §2
For the combined administration group, the total administration volume was the sum of the administration volumes of two single drugs, and the administration sequence and the administration time were kept consistent at each administration. The mice were continuously fed with high-fat feed during the administration period until the administration was finished. […]
After 20 days of administration, fasting blood glucose level results were measured for each group of animals and are shown in Table 8 below and FIG. 11.

[5] = Example 1: oral glucose tolerance test (OGTT), blood glucose; settings: for OGTT blood glucose level: HTD1801 200 mpk, empagliflozin 10 mpk (reduced after week 2), semaglutide 10 nmol/kg s.c. Q3D
From the text: as §1, §2, §3

[6] = day 0 (baseline), HTD1801 300 mpk, empagliflozin 15 mpk gavage QD
[7] = day 1, HTD1801 300 mpk, empagliflozin 15 mpk gavage QD
[8] = day 2, HTD1801 300 mpk, empagliflozin 15 mpk gavage QD
[9] = day 3, HTD1801 300 mpk, empagliflozin 15 mpk gavage QD
[10] = day 4, HTD1801 300 mpk, empagliflozin 15 mpk gavage QD
[11] = day 5, HTD1801 300 mpk, empagliflozin 15 mpk gavage QD
[12] = day 6, HTD1801 300 mpk, empagliflozin 15 mpk gavage QD
[13] = day 7, HTD1801 300 mpk, empagliflozin 15 mpk gavage QD
[14] = day 8, HTD1801 300 mpk, empagliflozin 15 mpk gavage QD
[15] = day 9, HTD1801 300 mpk, empagliflozin 15 mpk gavage QD
[16] = day 10, HTD1801 300 mpk, empagliflozin 15 mpk gavage QD
[17] = day 11, HTD1801 300 mpk, empagliflozin 15 mpk gavage QD
[18] = day 12, HTD1801 300 mpk, empagliflozin 15 mpk gavage QD
[19] = day 13, HTD1801 300 mpk, empagliflozin 15 mpk gavage QD
[20] = day 14, HTD1801 300 mpk, empagliflozin 15 mpk gavage QD
[21] = day 15, HTD1801 200 mpk, empagliflozin 10 mpk (reduced after week 2) gavage QD
[22] = day 16, HTD1801 200 mpk, empagliflozin 10 mpk (reduced after week 2) gavage QD
[23] = day 17, HTD1801 200 mpk, empagliflozin 10 mpk (reduced after week 2) gavage QD
[24] = day 18, HTD1801 200 mpk, empagliflozin 10 mpk (reduced after week 2) gavage QD
[25] = day 19, HTD1801 200 mpk, empagliflozin 10 mpk (reduced after week 2) gavage QD
[26] = day 20, HTD1801 200 mpk, empagliflozin 10 mpk (reduced after week 2) gavage QD
[27] = day 21, HTD1801 200 mpk, empagliflozin 10 mpk (reduced after week 2) gavage QD
[28] = day 22, HTD1801 200 mpk, empagliflozin 10 mpk (reduced after week 2) gavage QD
[29] = day 23, HTD1801 200 mpk, empagliflozin 10 mpk (reduced after week 2) gavage QD
[30] = day 24, HTD1801 200 mpk, empagliflozin 10 mpk (reduced after week 2) gavage QD
[31] = day 25, HTD1801 200 mpk, empagliflozin 10 mpk (reduced after week 2) gavage QD
[32] = day 26, HTD1801 200 mpk, empagliflozin 10 mpk (reduced after week 2) gavage QD
[33] = day 27, HTD1801 200 mpk, empagliflozin 10 mpk (reduced after week 2) gavage QD
[34] = day 28, HTD1801 200 mpk, empagliflozin 10 mpk (reduced after week 2) gavage QD
[35] = mean, after 25 days of administration, HTD1801 200 mpk, empagliflozin 10 mpk in last 2 weeks (300/15 mpk before), semaglutide 10 nmol/kg s.c. Q3D

SMILES: OC[C@H]1O[C@@H](c2ccc(Cl)c(Cc3ccc(O[C@H]4CCOC4)cc3)c2)[C@H](O)[C@@H](O)[C@@H]1O [Empagliflozin, empagliflozin]
- body weight change (in words) ([1]; after 14 days, reduced dose: HTD1801 200 mpk, empagliflozin 10 mpk): slowly increased
- Body weight (mean) [1, 6]: 42.9 g
- Body weight change rate [1, 6]: 0.0%
- Body weight (mean) [1, 7]: 42.8 g
- Body weight change rate [1, 7]: −0.2%
- Body weight (mean) [1, 8]: 42.9 g
- Body weight change rate [1, 8]: 0.1%
- Body weight (mean) [1, 9]: 42.8 g
- Body weight change rate [1, 9]: −0.1%
- Body weight (mean) [1, 10]: 42.9 g
- Body weight change rate [1, 10]: 0.0%
- Body weight (mean) [1, 11]: 43.0 g
- Body weight change rate [1, 11]: 0.4%
- Body weight (mean) [1, 12]: 42.9 g
- Body weight change rate [1, 12]: 0.1%
- Body weight (mean) [1, 13]: 42.6 g
- Body weight change rate [1, 13]: −0.5%
- Body weight (mean) [1, 14]: 42.7 g
- Body weight change rate [1, 14]: −0.4%
- Body weight (mean) [1, 15]: 43.1 g
- Body weight change rate [1, 15]: 0.5%
- Body weight (mean) [1, 16]: 43.2 g
- Body weight change rate [1, 16]: 0.8%
- Body weight (mean) [1, 17]: 43.3 g
- Body weight change rate [1, 17]: 1.1%
- Body weight (mean) [1, 18]: 43.7 g
- Body weight change rate [1, 18]: 1.9%
- Body weight (mean) [1, 19]: 43.6 g
- Body weight change rate [1, 19]: 1.8%
- Body weight (mean) [1, 20]: 43.7 g
- Body weight change rate [1, 20]: 2.0%
- Body weight (mean) [1, 21]: 43.5 g
- Body weight change rate [1, 21]: 1.5%
- Body weight (mean) [1, 22]: 43.8 g
- Body weight change rate [1, 22]: 2.3%
- Body weight (mean) [1, 23]: 44.1 g
- Body weight change rate [1, 23]: 2.9%
- Body weight (mean) [1, 24]: 44.5 g
- Body weight change rate [1, 24]: 3.9%
- Body weight (mean) [1, 25]: 44.8 g
- Body weight change rate [1, 25]: 4.4%
- Body weight (mean) [1, 26]: 45.1 g
- Body weight change rate [1, 26]: 5.2%
- Body weight (mean) [1, 27]: 45.5 g
- Body weight change rate [1, 27]: 6.2%
- Body weight (mean) [1, 28]: 46.0 g
- Body weight change rate [1, 28]: 7.3%
- Body weight (mean) [1, 29]: 46.4 g
- Body weight change rate [1, 29]: 8.3%
- Body weight (mean) [1, 30]: 46.5 g
- Body weight change rate [1, 30]: 8.5%
- Body weight (mean) [1, 31]: 46.5 g
- Body weight change rate [1, 31]: 8.4%
- Body weight (mean) [1, 32]: 46.3 g
- Body weight change rate [1, 32]: 8.1%
- Body weight (mean) [1, 33]: 46.7 g
- Body weight change rate [1, 33]: 8.9%
- Body weight (mean) [1, 34]: 46.5 g
- Body weight change rate [1, 34]: 8.4%
- body weight change / weight loss effect (in words) ([1]; within 14 days, HTD1801 300 mpk, empagliflozin 15 mpk gavage QD): basically unchanged in week 1 and gradually increased; also recorded: could not achieve the weight loss effect
- body fat mass and body fat ratio (in words) ([2]; after 25 days, relative to control group G2): increased
- Body weight ([2]; mean, after 25 days of administration (Table 5), HTD1801 200 mpk, empagliflozin 10 mpk in last 2 weeks (300/15 mpk before), semaglutide 10 nmol/kg s.c. Q3D): 47.53 g
- Body fat ratio [2, 35]: 49.13%
- Fat (body fat mass) [2, 35]: 23.36 g
- Epididymal fat weight [3]: 2.82 g
- Liver weight [3]: 1.34 g
- Mesenteric fat weight [3]: 1.20 g
- Subcutaneous fat weight [3]: 3.02 g
- Mean fasting blood glucose level [4, 12]: 7.8 mmol/L
- Mean fasting blood glucose level ([4]; day 20, HTD1801 200 mpk, empagliflozin 10 mpk (reduced after week 2)): 7.9 mmol/L
- OGTT blood glucose level ([5]; day 28, 0 min): 10.97 mmol/L
- OGTT blood glucose level ([5]; day 28, 15 min): 19.60 mmol/L
- OGTT blood glucose level ([5]; day 28, 30 min): 18.90 mmol/L
- OGTT blood glucose level ([5]; day 28, 60 min): 18.18 mmol/L
- OGTT blood glucose level ([5]; day 28, 90 min): 14.54 mmol/L
- OGTT blood glucose level ([5]; day 28, 120 min (head printed "12 0min")): 15.48 mmol/L
- total blood glucose level in OGTT (in words) ([5]; day 28, relative to model control group G2): comparable
